Data taken from PMC9069406 (Acta Pharmaceutica Sinica. B, 2021).

System: 4T1 (murine TNBC) cells
Assay: TNBC allograft model
Format: in vivo, mice
Details: 0.5 mg/kg i.p. daily, 18 days

Compound: N.N.[Cl][Pt][Cl] [cisplatin]
- reduction of average tumor weight at sacrifice: 25.2%
